From publication PMC7108740, “Exploring the molecular structures that confer ligand selectivity for galanin type II and III receptors” (PLoS ONE, 2020) come the findings set out here.

Ends that are not written are not given here.

The target in assay [1] is T1, human GALR2 (Homo sapiens, UniProt O43603).
T1 construct: host or cells: HEK293 cells stably expressing Gqi
T1 sequence (O43603 1-387): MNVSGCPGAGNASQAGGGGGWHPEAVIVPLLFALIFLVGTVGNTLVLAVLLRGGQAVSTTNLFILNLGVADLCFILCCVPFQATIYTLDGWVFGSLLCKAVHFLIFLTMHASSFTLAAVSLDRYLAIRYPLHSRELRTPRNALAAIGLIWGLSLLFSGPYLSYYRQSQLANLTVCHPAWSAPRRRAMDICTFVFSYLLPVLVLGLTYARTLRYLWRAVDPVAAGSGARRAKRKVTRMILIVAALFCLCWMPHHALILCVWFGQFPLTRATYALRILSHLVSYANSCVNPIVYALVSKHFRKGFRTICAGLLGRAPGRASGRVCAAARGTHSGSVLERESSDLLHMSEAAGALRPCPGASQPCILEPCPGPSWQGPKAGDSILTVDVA
Nature of the assay: SRE-luc luciferase assay, WT GALR2. To be noted: SRE-luc in HEK293 Gqi cells, ligand 6 h, mean ± SE, at least three independent experiments, SEM. It is filed as cell-based. The text has this:
The pcDNA3.1 vector was purchased from Invitrogen (San Diego, CA, USA). The serum response element (SRE)-luciferase (SRE-luc) vector containing a single copy of the SRE (CCATATTAGG) conjugated with luciferase was purchased from Stratagene (La Jolla, CA, USA). The cDNAs for human GALR1, GALR2, and GALR3 were obtained from BRN SCIENCE, Inc. The cDNAs were inserted into the EcoRⅠ and XhoⅠ sites of pcDNA3.1.
HEK293 cells stably expressing the Gqi construct, which allows induction of Gq-dependent signaling pathways upon activation of a Gi-coupled receptor [14, 30], were maintained in Dulbecco's Modified Eagle's Medium (DMEM) in the presence of 10% fetal bovine serum and 1% penicillin and streptomycin. For all transfections, 200 ng DNA (100 ng receptor and 100 ng SRE-luc) mixed with lipofectamine 2000 was applied to 60–80% confluent cells on a multi-well plate according to the manufacturer's instructions (Invitrogen, Carlsbad, CA).
For luciferase assays, HEK293 Gqi cells were seeded on 48-well plates at a density of 2.5 × 10^4 cells/well one day before transfection. A mixture including 100 ng SRE-luc reporter construct, 100 ng expression plasmid, and lipofectamine 2000 reagent in diluted Opti-MEM (Gibco) was incubated at room temperature for 20 min and then added into each well according to the manufacturer's instructions (Invitrogen, CA, USA). Before exposure to the ligands, the cells were maintained in serum-free DMEM for 16–18 h. Approximately 48 h after transfection, the cells were treated with ligand for 6 h. The cells were then lysed by the addition of 100 μl lysis buffer. The luciferase activity in 50 μl cell extract was determined using a luciferase assay system according to the standard protocol for the Synergy 2 Multi-Mode Microplate Reader (BioTek, Winooski, VT, USA).
Data analysis was performed by non-linear regression with a sigmoidal dose-response curve. The concentrations of agonists that induced half-maximal stimulation (EC50) were calculated using the GraphPad PRISM5 software (GraphPad software, Inc., San Diego, CA). All data are presented as the mean ± standard error (SE) of at least three independent experiments.

Assay [2] concerns the target T2, GALR3 single mutant Y^103F (Homo sapiens, UniProt O60755, Y103F).
T2 construct: expressed in transfected cells; host or cells: HEK293 cells stably expressing Gqi
T2 sequence (O60755 1-368 Y103F): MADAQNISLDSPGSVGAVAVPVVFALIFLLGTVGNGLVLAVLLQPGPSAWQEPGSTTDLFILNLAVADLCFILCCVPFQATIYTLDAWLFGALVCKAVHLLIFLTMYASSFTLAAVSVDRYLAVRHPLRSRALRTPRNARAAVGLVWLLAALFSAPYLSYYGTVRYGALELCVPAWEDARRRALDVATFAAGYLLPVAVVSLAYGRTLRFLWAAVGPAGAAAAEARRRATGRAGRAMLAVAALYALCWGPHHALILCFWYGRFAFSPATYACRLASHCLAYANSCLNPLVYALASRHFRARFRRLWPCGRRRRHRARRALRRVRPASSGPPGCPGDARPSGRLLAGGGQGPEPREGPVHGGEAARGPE
The experiment in a line: SRE-luc luciferase assay, GALR3 Y103F. The assay is classed as cell-based. To be noted: GALR3 Y^103F; SRE-luc in HEK293 Gqi cells, ligand 6 h; mean ± S.E.; SEM. The source says: For domain swapping between GALR2 and GALR3, individual cDNA fragments of interest were amplified by polymerase chain reaction (PCR) with Pfu polymerase (ELPIS Biotech, Daejeon, Korea) and two specific primers, one corresponding to the 5' or 3' end of the GALR2 or GALR3 cDNA and the other to the region of overlap between the two receptors. The two resulting fragments, one from GALR2 and the other from GALR3, were subjected to a second round of PCR to generate the chimeric cDNAs. To construct single, double-, triple-, pentuple-, hextuple-, and septuple-mutant receptors, amino acids of GALR3 were substituted for the amino acids at the corresponding positions in GALR2 using PCR-based site-directed mutagenesis. All of the chimeric constructs were cloned into the pcDNA3 expression vector at HindⅢ and XbaⅠ sites. The DNA sequences of the chimeras were verified by automatic sequencing. HEK293 cells stably expressing the Gqi construct, which allows induction of Gq-dependent signaling pathways upon activation of a Gi-coupled receptor [14, 30], were maintained in Dulbecco's Modified Eagle's Medium (DMEM) in the presence of 10% fetal bovine serum and 1% penicillin and streptomycin. For all transfections, 200 ng DNA (100 ng receptor and 100 ng SRE-luc) mixed with lipofectamine 2000 was applied to 60–80% confluent cells on a multi-well plate according to the manufacturer's instructions (Invitrogen, Carlsbad, CA). For luciferase assays, HEK293 Gqi cells were seeded on 48-well plates at a density of 2.5 × 10^4 cells/well one day before transfection. […] The luciferase activity in 50 μl cell extract was determined using a luciferase assay system according to the standard protocol for the Synergy 2 Multi-Mode Microplate Reader (BioTek, Winooski, VT, USA). […] The concentrations of agonists that induced half-maximal stimulation (EC50) were calculated using the GraphPad PRISM5 software (GraphPad software, Inc., San Diego, CA). […]

For the compound NWTPQAALYLKGAQ-NH2 [A^7-SPX], the EC50 (in general, the concentration giving half of the maximal effect) in assay [1] turned out to be 40.7 ± 13.2 nM; in assay [2] it was 302 ± 72.9 nM.

In the case of NWTPQAMLYLKGPQ-NH2 [P^13-SPX], in assay [1], the concentration for a half-maximal effect (EC50) was found to be 33.1 ± 6.19 nM.

NWTPNAMLYLKGAQ-NH2 [N^5-SPX]: the results for the 50% effective concentration (EC50) in assay [1] and in assay [2] were 87.7 ± 10.6 nM and 676 ± 127 nM, respectively.

Turning to `CSCC[C@H](NC(=O)[C@H](C)NC(=O)[C@H](CCC(N)=O)NC(=O)[C@@H]1CCCN1C(=O)[C@@H](NC(=O)[C@H](Cc1c[nH]c2ccccc12)NC(=O)[C@@H](N)CC(N)=O)[C@@H](C)O)C(=O)N[C@@H](CC(C)C)C(=O)N[C@@H](Cc1ccc(O)cc1)C(=O)N[C@@H](CC(C)C)C(=O)N[C@@H](CCCCN)C(=O)NCC(=O)N[C@@H](C)C(=O)N[C@@H](CCC(N)=O)C(N)=O` [SPX, reference compound], in assay [2], the EC50 turned out to be 32.4 ± 10.5 nM.
